Experimental findings from ChEMBL document CHEMBL1123439, “Folate analogues. 26. Syntheses and antifolate activity of 10-substituted derivatives of 5,8-dideazafolic acid and of the poly-gamma-glutamyl metabolites of N10-propargyl-5,8-dideazafolic acid (PDDF)” (J Med Chem, 1986) are described below.

The test system of assay [1] is Lacticaseibacillus casei. The experiment in a line: Inhibitory activity against Lactobacillus casei MTX-resistant. It counts as functional, organism-based.
Assay [2] deals with L1210. Put plainly: Inhibition of thymidylate synthesis in permeabilised cells. In kind it is functional, cell-based. Particulars: Mus musculus.
Assay [3] relates to L1210. Put plainly: Inhibition of thymidylate synthesis in L1210 intact cells at 10 uM. Conditions: Mus musculus. It counts as functional.
The test system of assay [4] is Enterococcus faecium. Put plainly: Inhibitory activity against Streptococcus faecium MTX-resistant. In kind it is functional, organism-based.
Assay [5] deals with Enterococcus faecium. The experiment in a line: Inhibitory activity against Streptococcus faecium ATCC 8043. It counts as functional, organism-based.
The test system of assay [6] is Lacticaseibacillus casei. Put plainly: Inhibitory activity against Lactobacillus casei ATCC 7469. In kind it is functional, organism-based.
Assay [7] relates to L1210. Put plainly: Inhibition of thymidylate synthesis in L1210 cells at 100 uM. It counts as functional. Conditions: Mus musculus.
A further assay has as its target Dihydrofolate reductase (Lactobacillus casei, UniProt P00381). Put plainly: Inhibitory activity against dihydrofolate reductase of Lactobacillus casei. Further details: species or system Lacticaseibacillus casei.
For a further assay, the target named is T1, Thymidylate synthase (Lactobacillus casei, UniProt P00469).
T1 sequence (P00469 whole entry): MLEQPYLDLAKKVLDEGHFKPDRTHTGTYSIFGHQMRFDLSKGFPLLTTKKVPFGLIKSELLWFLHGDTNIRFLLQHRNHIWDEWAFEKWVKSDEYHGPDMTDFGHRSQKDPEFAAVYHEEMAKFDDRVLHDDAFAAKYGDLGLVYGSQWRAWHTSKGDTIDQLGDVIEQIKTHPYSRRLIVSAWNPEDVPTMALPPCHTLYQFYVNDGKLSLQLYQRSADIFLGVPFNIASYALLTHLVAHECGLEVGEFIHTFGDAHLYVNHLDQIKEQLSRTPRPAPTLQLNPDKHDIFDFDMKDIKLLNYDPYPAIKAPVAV
The experiment in a line: Inhibitory activity against thymidylate synthase of Lactobacillus casei. Details: species or system Lacticaseibacillus casei.

Sequence of Dihydrofolate reductase (P00381 whole entry): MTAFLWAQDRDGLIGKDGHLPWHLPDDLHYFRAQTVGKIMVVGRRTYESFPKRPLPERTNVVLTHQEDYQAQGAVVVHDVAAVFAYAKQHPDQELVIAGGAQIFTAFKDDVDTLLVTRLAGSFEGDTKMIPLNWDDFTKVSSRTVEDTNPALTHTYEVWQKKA

For orientation: IC50 means the midpoint of a concentration-inhibition curve. Low readings indicate greater potency in that assay, high ones weaker potency in that assay. By inhibition is commonly meant how much of the control response was suppressed. `CN(Cc1cnc2nc(N)nc(N)c2n1)c1ccc(C(=O)N[C@@H](CCC(=O)O)C(=O)O)cc1` [METHOTREXATE]: the IC50 in the assay on Lacticaseibacillus casei [1] was greater than 1000 µM; with L1210 [2] it was 60 µM; in the assay on Enterococcus faecium [4], 3.9 µM; with Enterococcus faecium [5], 0.0003 µM; in the assay with Lacticaseibacillus casei [6], 0.03 nM. Further, in the assay on L1210 [3], the inhibition at 10 µM was determined as 95%. For the same molecule, the inhibition at 100 µM with L1210 [7] worked out at 98%.
Turning to `C#CN(Cc1ccc2nc(N)nc(O)c2c1)c1ccc(C(=O)NC(CCC(=O)O)C(=O)NC(CCC(=O)NC(CCC(=O)NC(CCC(=O)O)C(=O)O)C(=O)O)C(=O)O)cc1` (stereo unspecified), the IC50 with Lacticaseibacillus casei [1] was greater than 20 µM; in the assay on L1210 [2] it was 0.0014 µM; at Dihydrofolate reductase, 3.7 µM; in the assay on Enterococcus faecium [4], greater than 0.8 µM; against Thymidylate synthase it was 0.014 µM; in the assay with Enterococcus faecium [5], 0.075 µM. In the assay with Lacticaseibacillus casei [6], this molecule yielded an IC50 of 0.18 nM. For the same molecule, in the assay with L1210 [3], the inhibition at 10 µM came to 0%. Also, 100 µM produced 3% inhibition in the assay with L1210 [7].
As to `C#CN(Cc1ccc2nc(N)nc(O)c2c1)c1ccc(C(=O)NC(CCC(=O)NC(CCC(=O)NC(CCC(=O)O)C(=O)O)C(=O)O)C(=O)O)cc1` (stereo unspecified), the IC50 was 1.1 µM in the assay on Lacticaseibacillus casei [1]; 0.002 µM in the assay with L1210 [2]; 5.3 µM against Dihydrofolate reductase; greater than 0.8 µM with Enterococcus faecium [4]; 0.014 µM at Thymidylate synthase; 0.034 µM with Enterococcus faecium [5]. The molecule further returned an IC50 with Lacticaseibacillus casei [6] of 0.08 nM. In addition, in the assay on L1210 [3], the inhibition at 10 µM was found to be 0%. Besides, in the assay on L1210 [7], the inhibition at 100 µM amounted to 8%.
As to `Nc1nc(O)c2cc(CN(CC3CC3)c3ccc(C(=O)N[C@@H](CCC(=O)O)C(=O)O)cc3)ccc2n1`, the IC50 was greater than 20 µM with Lacticaseibacillus casei [1]; 82 µM with L1210 [2]; 2.3 µM against Dihydrofolate reductase; 1.5 µM in the assay on Enterococcus faecium [4]; 12 µM against Thymidylate synthase; 0.0026 µM with Enterococcus faecium [5]. For the same molecule, the IC50 in the assay with Lacticaseibacillus casei [6] is 8.1 nM.
Turning to `C#CN(Cc1ccc2nc(N)nc(O)c2c1)c1ccc(C(=O)NC(CCC(=O)O)C(=O)NC(CCC(=O)NC(CCC(=O)NC(CCC(=O)NC(CCC(=O)O)C(=O)O)C(=O)O)C(=O)O)C(=O)O)cc1` (stereo unspecified), the half-maximal inhibitory concentration (IC50) is greater than 20 µM in the assay with Lacticaseibacillus casei [1]; 0.002 µM with L1210 [2]; 2.9 µM against Dihydrofolate reductase; greater than 0.8 µM in the assay with Enterococcus faecium [4]; 0.013 µM against Thymidylate synthase; greater than 0.08 µM with Enterococcus faecium [5]. This molecule registered an IC50 in the assay with Lacticaseibacillus casei [6] of 0.35 nM. Further, testing at 10 µM with L1210 [3] gave an inhibition of 0%. In the assay on L1210 [7], this molecule yielded an inhibition at 100 µM of 8%.
Consider `C#CN(Cc1ccc2nc(N)nc(O)c2c1)c1ccc(C(=O)NC(CCC(=O)O)C(=O)NC(CCC(=O)O)C(=O)O)cc1` (stereo unspecified), for which the 50% inhibitory concentration (IC50) stood at 0.28 µM in the assay on Lacticaseibacillus casei [1]; 0.006 µM in the assay on L1210 [2]; 0.125 µM with Enterococcus faecium [4]; 0.00036 µM with Enterococcus faecium [5]; 0.05 nM with Lacticaseibacillus casei [6]. Further, the inhibition at 10 µM in the assay with L1210 [3] stood at 0%. This molecule showed an inhibition at 100 µM in the assay on L1210 [7] of 32%.
For the molecule `C#CN(Cc1ccc2nc(N)nc(O)c2c1)c1ccc(C(=O)NC(CCC=O)C(=O)O)cc1` (stereo unspecified), the IC50 in the assay on L1210 [2] is 0.03 µM; in the assay with Enterococcus faecium [4], 0.02 µM; in the assay on Enterococcus faecium [5], 0.00013 µM; in the assay with Lacticaseibacillus casei [6], 0.4 nM. Moreover, in the assay with L1210 [3], the inhibition at 10 µM was 55%. In addition, in the assay on L1210 [7], the inhibition at 100 µM was found to be 87%.
With `CC#CCN(Cc1ccc2nc(N)nc(O)c2c1)c1ccc(C(=O)N[C@@H](CCC(=O)O)C(=O)O)cc1`, the half-inhibitory concentration (IC50) in the assay with Lacticaseibacillus casei [1] is greater than 20 µM; in the assay on L1210 [2], 14 µM; against Dihydrofolate reductase, 250 µM; in the assay on Enterococcus faecium [4], 1.6 µM; against Thymidylate synthase it was 4.4 µM; in the assay with Enterococcus faecium [5] it was 0.0067 µM. Further, the midpoint of inhibition with Lacticaseibacillus casei [6], the IC50, lay at 86 nM.
